# Test results published in ChEMBL document CHEMBL5390243, “Catecholamine Derivatives: Natural Occurrence, Structural Diversity, and Biological Activity” (J Nat Prod, 2023).
# Key:
# RAW264.7 [1] = experiment: Anti-inflammatory activity against mouse RAW264.7 cells assessed as inhibition of LPS-induced NO production at 100 ng/ml pretreated with compound for 2 hrs followed by LPS stimulation and measured after 24 hrs by Griess reagent based analysis; assay type: functional; parameters: scale not given: the % may be the effect or the level left; conditions: time 26 hrs
# RAW264.7 [2] = experiment: Antiinflammatory activity against LPS-induced mouse RAW264.7 cells assessed as reduction in IL-6 mRNA expression at 10 uM by RT-PCR analysis; assay type: functional; parameters: scale not given: the % may be the effect or the level left
# [3] = Metal chelating activity assessed as iron chelation by CAS assay
# SGC-7901 = experiment: Cytotoxicity against human SGC-7901 cells assessed as reduction in cell viability measured after 72 hrs by MTT assay; assay type: functional, cell-based; conditions: SGC-7901, 72 h
# [4] = biological target: Tyrosine-protein kinase JAK3 (Homo sapiens, UniProt P52333); experiment: Inhibition of JAK3 (unknown origin) preincubated for 1 hr followed by substrate addition and measured after 1 hr in the presence of ATP by FRET-based Z'-Lyte assay
# Tyrosine-protein kinase JAK3, sequence (P52333 whole entry): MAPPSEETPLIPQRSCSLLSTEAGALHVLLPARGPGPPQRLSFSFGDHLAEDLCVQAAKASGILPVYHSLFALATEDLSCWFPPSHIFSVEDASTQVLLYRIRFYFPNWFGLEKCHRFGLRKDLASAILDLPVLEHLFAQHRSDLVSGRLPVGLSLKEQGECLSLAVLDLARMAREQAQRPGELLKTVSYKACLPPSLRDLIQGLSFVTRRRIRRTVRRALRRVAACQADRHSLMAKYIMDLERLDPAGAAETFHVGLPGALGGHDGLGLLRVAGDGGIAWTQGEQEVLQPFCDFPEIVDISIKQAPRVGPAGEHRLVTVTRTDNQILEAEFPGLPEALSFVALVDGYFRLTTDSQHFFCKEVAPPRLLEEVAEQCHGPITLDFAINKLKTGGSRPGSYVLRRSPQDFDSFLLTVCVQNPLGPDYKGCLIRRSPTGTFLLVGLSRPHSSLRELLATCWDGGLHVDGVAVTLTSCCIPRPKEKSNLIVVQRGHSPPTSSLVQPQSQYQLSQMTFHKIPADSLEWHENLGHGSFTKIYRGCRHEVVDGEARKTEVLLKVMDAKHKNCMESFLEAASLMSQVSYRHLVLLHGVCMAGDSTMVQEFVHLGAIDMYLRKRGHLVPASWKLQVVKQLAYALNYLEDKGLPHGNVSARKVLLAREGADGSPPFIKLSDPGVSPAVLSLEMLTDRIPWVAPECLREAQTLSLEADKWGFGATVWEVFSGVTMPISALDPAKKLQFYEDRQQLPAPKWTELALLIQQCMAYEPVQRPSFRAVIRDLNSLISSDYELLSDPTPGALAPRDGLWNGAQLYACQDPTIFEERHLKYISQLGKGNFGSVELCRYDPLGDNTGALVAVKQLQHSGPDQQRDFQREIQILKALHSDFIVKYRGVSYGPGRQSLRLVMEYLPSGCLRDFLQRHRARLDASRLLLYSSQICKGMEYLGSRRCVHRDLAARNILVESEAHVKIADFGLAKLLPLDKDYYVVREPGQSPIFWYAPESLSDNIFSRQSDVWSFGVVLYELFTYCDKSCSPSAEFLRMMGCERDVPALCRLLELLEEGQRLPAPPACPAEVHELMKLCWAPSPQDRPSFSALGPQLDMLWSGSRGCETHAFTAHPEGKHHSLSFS
# [5] = biological target: Glycogen synthase kinase-3 beta (Homo sapiens, UniProt P49841); experiment: Inhibition of N-terminal His6-tagged human recombinant GSK3beta expressed in baculovirus-infected Sf21 cells incubated for 60 mins in presence of ATP by ADP-glo analysis
# Glycogen synthase kinase-3 beta, sequence (P49841 whole entry): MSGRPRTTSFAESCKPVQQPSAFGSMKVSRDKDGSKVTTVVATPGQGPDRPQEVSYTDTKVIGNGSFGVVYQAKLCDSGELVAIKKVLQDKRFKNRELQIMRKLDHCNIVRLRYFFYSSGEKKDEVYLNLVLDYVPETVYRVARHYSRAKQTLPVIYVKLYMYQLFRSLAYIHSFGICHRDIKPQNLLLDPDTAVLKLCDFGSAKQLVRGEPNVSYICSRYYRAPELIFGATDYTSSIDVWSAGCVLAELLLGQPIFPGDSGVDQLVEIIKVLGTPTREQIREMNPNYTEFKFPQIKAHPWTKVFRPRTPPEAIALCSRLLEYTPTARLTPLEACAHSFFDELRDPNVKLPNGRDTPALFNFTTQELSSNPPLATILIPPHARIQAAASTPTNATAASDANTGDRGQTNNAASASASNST
# [6] = biological target: Cyclin-dependent kinase 5/CDK5 activator 1 (Homo sapiens, UniProt Q00535); experiment: Inhibition of N-terminal full length human recombinant CDK5/p25 expressed in baculovirus-infected Sf21 cells incubated for 60 mins in presence of ATP by kinase-glo luminescent assay
# Cyclin-dependent kinase 5/CDK5 activator 1, sequence (Q00535 whole entry, the tested form may be a part, canonical isoform): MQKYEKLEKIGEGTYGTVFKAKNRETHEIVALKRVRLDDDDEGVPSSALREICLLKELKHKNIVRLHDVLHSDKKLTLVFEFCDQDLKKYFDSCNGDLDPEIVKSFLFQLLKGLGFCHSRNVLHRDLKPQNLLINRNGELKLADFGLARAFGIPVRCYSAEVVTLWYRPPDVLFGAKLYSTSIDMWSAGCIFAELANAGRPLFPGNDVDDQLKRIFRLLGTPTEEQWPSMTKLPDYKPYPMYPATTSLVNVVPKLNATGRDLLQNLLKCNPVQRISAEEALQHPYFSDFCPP
# Cyclin-dependent kinase 5/CDK5 activator 1, sequence (Q15078 whole entry, further chain, the tested form may be a part, canonical isoform): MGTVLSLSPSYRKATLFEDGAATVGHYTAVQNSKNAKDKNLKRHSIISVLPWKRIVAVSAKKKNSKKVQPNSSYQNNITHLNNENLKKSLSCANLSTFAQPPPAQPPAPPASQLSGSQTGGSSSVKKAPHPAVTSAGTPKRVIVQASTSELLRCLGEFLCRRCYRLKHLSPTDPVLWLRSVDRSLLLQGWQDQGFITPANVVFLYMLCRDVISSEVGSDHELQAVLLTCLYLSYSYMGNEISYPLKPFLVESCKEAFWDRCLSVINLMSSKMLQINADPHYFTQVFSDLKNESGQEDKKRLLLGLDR
# [7] = biological target: Casein kinase I isoform delta (Homo sapiens, UniProt P48730); experiment: Inhibition of N-terminal GST-tagged human recombinant CK1delta (1 to 294 residues) expressed in Escherichia coli incubated for 60 mins in presence of ATP by Kinase-glo luminescent assay
# Casein kinase I isoform delta, sequence (P48730 whole entry, the tested form may be a part, canonical isoform): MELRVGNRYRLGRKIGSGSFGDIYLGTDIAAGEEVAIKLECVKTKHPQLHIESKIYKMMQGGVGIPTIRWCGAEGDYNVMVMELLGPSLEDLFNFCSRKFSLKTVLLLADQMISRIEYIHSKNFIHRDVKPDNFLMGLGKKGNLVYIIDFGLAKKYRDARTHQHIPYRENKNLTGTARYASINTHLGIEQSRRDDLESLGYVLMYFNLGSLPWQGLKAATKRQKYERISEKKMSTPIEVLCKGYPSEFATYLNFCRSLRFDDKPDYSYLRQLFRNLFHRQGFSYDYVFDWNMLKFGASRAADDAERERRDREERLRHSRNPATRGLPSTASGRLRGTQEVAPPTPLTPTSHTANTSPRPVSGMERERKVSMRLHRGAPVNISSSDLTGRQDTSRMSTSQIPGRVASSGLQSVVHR
# [8] = Antioxidant activity assessed as DPPH radical scavenging activity incubated for 20 mins by spectrophotometric method; assay type: functional
# RAW264.7 [9] = experiment: Antiinflammatory activity in LPS-induced mouse RAW264.7 cells assessed as reduction in COX-2 level at 100 uM pretreated for 1 hr followed by LPS stimulation and measured after 48 hrs by ELISA relative to control; assay type: functional; parameters: scale not given: the % may be the effect or the level left; conditions: time 49 hrs
# MCF7 = experiment: Cytotoxicity against human MCF7 cells assessed as reduction in cell viability measured after 24 hrs by MTT assay; assay type: functional, cell-based; conditions: MCF7, 24 h
# Acetylcholinesterase [10] = biological target: T1, Acetylcholinesterase (Homo sapiens, UniProt P22303); experiment: Inhibition of Acetylcholinesterase (unknown origin) using acetylthiocholine iodide as substrate incubated for 20 mins by Ellaman's method
# T1 sequence (P22303 whole entry): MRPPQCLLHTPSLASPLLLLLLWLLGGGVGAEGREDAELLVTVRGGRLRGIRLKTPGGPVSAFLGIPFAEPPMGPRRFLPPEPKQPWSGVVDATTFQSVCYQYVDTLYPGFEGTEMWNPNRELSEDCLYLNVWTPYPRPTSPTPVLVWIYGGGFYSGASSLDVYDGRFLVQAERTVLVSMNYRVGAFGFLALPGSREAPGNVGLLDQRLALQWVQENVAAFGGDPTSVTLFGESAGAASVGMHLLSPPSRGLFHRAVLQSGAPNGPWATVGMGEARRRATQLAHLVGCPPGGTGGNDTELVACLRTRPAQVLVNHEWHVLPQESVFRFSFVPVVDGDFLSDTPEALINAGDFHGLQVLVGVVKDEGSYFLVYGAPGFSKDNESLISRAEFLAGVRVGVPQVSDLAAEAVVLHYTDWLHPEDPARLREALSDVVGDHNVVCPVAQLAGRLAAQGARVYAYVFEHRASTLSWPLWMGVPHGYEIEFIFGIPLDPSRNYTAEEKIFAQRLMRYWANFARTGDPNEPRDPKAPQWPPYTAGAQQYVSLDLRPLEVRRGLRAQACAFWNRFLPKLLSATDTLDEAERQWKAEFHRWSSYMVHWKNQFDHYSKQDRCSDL
# [11] = biological target: Beta-1 adrenergic receptor (Homo sapiens) (UniProt P08588); experiment: Agonist activity at ARbeta1 (unknown origin) expressed in CHO-K1 cells co-expressing G alpha 15 assessed as inhibition of isoproterenol induced calcium response upto 100 uM incubated for 10 mins by calcium mobilization assay relative to control; assay type: functional, cell-based; parameters: Activity: scale not given: the % may be the effect or the level left
# Beta-1 adrenergic receptor (Homo sapiens), sequence (P08588 whole entry, looked up): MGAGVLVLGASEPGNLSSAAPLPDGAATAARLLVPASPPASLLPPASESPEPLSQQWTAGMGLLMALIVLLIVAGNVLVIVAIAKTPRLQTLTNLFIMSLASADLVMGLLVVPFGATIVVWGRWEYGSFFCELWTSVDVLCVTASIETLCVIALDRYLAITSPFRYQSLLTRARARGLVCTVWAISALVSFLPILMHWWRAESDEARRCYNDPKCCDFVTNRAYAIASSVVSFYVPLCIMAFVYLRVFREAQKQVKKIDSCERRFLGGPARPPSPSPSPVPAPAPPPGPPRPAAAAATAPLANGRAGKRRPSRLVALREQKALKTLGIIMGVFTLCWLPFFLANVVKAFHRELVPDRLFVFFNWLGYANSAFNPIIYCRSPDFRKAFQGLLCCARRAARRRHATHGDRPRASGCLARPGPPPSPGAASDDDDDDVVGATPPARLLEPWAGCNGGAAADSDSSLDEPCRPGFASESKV
# Cholinesterase = Cholinesterase (Homo sapiens, UniProt P06276); experiment: Inhibition of butyrylcholinesterase (unknown origin)
# Cholinesterase, sequence (P06276 whole entry): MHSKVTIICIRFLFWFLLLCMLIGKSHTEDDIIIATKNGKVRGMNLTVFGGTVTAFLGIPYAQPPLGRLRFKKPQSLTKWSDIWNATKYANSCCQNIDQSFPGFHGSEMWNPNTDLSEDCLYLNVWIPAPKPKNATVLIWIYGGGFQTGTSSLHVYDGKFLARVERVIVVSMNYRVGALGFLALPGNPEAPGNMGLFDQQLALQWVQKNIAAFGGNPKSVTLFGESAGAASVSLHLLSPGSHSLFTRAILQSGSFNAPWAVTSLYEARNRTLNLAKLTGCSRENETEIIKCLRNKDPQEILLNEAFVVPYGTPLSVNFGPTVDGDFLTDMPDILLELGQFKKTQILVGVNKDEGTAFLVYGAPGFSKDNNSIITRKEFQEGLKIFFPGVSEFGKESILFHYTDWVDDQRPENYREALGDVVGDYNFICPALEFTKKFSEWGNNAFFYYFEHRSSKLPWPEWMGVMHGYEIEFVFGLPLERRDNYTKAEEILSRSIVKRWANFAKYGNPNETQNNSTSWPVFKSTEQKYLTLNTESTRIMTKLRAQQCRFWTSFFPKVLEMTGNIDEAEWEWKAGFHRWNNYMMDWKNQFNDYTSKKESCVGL
# Helicoverpa armigera = experiment: Antifeedant activity against Helicoverpa armigera at 100 uM relative to control; assay type: functional
# Acetylcholinesterase [12] = biological target: T1, Acetylcholinesterase; experiment: Inhibition of AChE (unknown origin) by Ellman's method
# RAW264.7 [13] = experiment: Anti-inflammatory activity against mouse RAW264.7 cells assessed as inhibition of LPS-induced NO production at 10 uM preincubated with compound for 2 hrs followed by LPS stimulation and measured after 24 hrs by Griess reagent based analysis; assay type: functional, cell-based
# [14] = Antioxidant activity assessed as DPPH radical scavenging activity; assay type: functional
# Acetylcholinesterase [15] = biological target: T1, Acetylcholinesterase; experiment: Inhibition of human AchE using acetylthiocholine iodide as substrate incubated for 20 mins by Ellman's assay; conditions: read-out: EC50 (the source's name)
# [16] = Immunosuppressive activity in Kunming mouse splenocyte assessed as reduction in ConA-stimulated T-lymphocytes proliferation at 20 uM incubated for 72 hrs by CCK-8 assay relative to control; assay type: functional, T-cell; parameters: scale not given: the % may be the effect or the level left
# [17] = Antioxidant activity assessed as ABTS radical scavenging activity incubated for 30 mins by UV-visible spectrphotometric analysis; assay type: functional
# [18] = Antioxidant activity assessed as DPPH radical scavenging activity measured after 30 mins by UV-visible spectrophotometric analysis; assay type: functional
# RAW264.7 [19] = experiment: Anti-inflammatory activity against mouse RAW264.7 cells assessed as inhibition of LPS-induced nitric oxide production at 50 uM preincubated for 2 hrs with compound followed by LPS-stimulation and measured after 24 hrs by Griess reagent based analysis; assay type: functional, cell-based
smiles,measurement,setting,value
COc1cc(/C=C/C(=O)N2c3cc(O[C@@H]4O[C@H](CO[C@@H]5O[C@H](CO)[C@@H](O)[C@H](O)[C@H]5OC(=O)/C=C/c5cc(OC)c(O)c(OC)c5)[C@@H](O)[C@H](O)[C@H]4O)c(O)cc3C[C@H]2C(=O)O)ccc1O,Activity,RAW264.7 [1],38.9%
same,Activity,RAW264.7 [2],82.4%
NC[C@H](CCCCNC(=O)c1cccc(O)c1O)NC(=O)c1cccc(O)c1O,EC50,[3],4.6 µM
NC[C@H](CCCCNC(=O)c1cccc(O)c1O)N1C(=O)c2c(ccc(O)c2O)[C@@H](c2ccccc2)[C@]1(O)C(=O)O,EC50,[3],28 µM
COc1cc2c(cc1O)[C@@H]1Cc3cc(O)c(O)cc3C[N@@+]1(C)CC2,IC50,SGC-7901,85.1 µM
Cc1cnc(-c2ccc(O)c(O)c2)c(C)n1,IC50,[4],12.6 µM
COc1cc(/C=C/C(=O)O[C@H]2[C@H](OC[C@H]3O[C@@H](Oc4cc5c(cc4O)C[C@@H](C(=O)O)N5C(=O)/C=C/c4ccc(O)c(OC)c4)[C@H](O)[C@@H](O)[C@@H]3O)O[C@H](CO)[C@@H](O[C@@H]3O[C@H](CO)[C@@H](O)[C@H](O)[C@H]3O)[C@@H]2O)ccc1O,Activity,RAW264.7 [1],45.2%
same,Activity,RAW264.7 [2],75.6%
COc1cc2c(cc1O)CCn1c-2c(-c2ccc(O)c(O)c2)c2c3cc(O)c(OC)cc3oc(=O)c21,IC50,[5],3 µM
same,IC50,[6],1.1 µM
same,IC50,[7],> 10 µM
COC(=O)[C@@H]1Cc2cc(O)c(O[C@@H]3O[C@H](CO)[C@@H](O)[C@H](O)[C@H]3O)cc2N1C(=O)/C=C/c1ccc(O)c(OC)c1,EC50,[8],21 µM
CS(=O)(=O)Nc1ccc([N+](=O)[O-])cc1OC1CCCCC1 [NS-398],Activity,RAW264.7 [9],97.1%
COCc1ccc(C=O)n1CCc1ccc(O)c(O)c1,IC50,MCF7,11.6 µM
O=C1C(c2ccc(O)c(O)c2)=c2c(c3c(n2CCc2ccc(O)c(O)c2)=C(c2ccc(O)c(O)c2)C(=O)c2c-3ccc(O)c2O)-c2cc(O)c(O)cc21,IC50,[5],< 0.5 µM
same,IC50,[6],< 2.4 µM
same,IC50,[7],< 1.4 µM
O=Cc1ccc2n1CCc1cc(O)c(O)cc1C2,IC50,Acetylcholinesterase [10],58.4 µM
COc1cc(/C=C/C(=O)O[C@H]2[C@H](OC[C@H]3O[C@@H](Oc4cc5c(cc4O)C[C@@H](C(=O)O)N5C(=O)/C=C/c4ccc(O)c(O[C@@H]5O[C@H](CO)[C@@H](O)[C@H](O)[C@H]5O)c4)[C@H](O)[C@@H](O)[C@@H]3O)O[C@H](CO)[C@@H](O[C@@H]3O[C@H](COC(=O)/C=C/c4cc(OC)c(O)c(OC)c4)[C@@H](O)[C@H](O)[C@H]3O)[C@@H]2O)ccc1O,Activity,RAW264.7 [1],22.4%
same,Activity,RAW264.7 [2],63.2%
OCc1ccc(C2=NCCc3cc(O)c(O)cc32)o1,Activity,[11],13.7%
O=C(/C=C/c1ccc(O)cc1)NCCc1ccc(O)c(O)c1,EC50,Cholinesterase,41.3 µM
same,Activity,Helicoverpa armigera,65.1%
same,EC50,Acetylcholinesterase [12],16.9 µM
COC(=O)[C@@H]1Cc2cc(O)c(O[C@@H]3O[C@H](CO)[C@@H](O)[C@H](O)[C@H]3O)cc2N1C(=O)/C=C/c1ccc(O)cc1,EC50,[8],37.7 µM
O=C1C(c2ccc(O)c(O)c2)=C2C(=C(c3ccc(O)c(O)c3)C(=O)N2CCc2ccc(O)c(O)c2)c2cc(O)c(O)cc21,IC50,[5],< 0.2 µM
same,IC50,[6],< 1.5 µM
same,IC50,[7],< 0.2 µM
NC[C@H](CCCCNC(=O)c1cccc(O)c1O)N1C(=O)c2c(ccc(O)c2O)[C@@H](c2ccc(O)cc2)[C@]1(O)C(=O)O,EC50,[3],38.4 µM
C[C@@H]1C[C@H]2[C@@H]3CCC4=CC(=O)C=C[C@]4(C)[C@@]3(F)[C@@H](O)C[C@]2(C)[C@@]1(O)C(=O)CO [DEXAMETHASONE],IC50,RAW264.7 [13],2 µM
O=C1C(c2ccc(O)c(O)c2)=c2c(c3c(n2CCc2ccc(O)c(O)c2)=C(c2ccc(O)c(O)c2)C(=O)c2cc(O)c(O)cc2-3)-c2cc(O)c(O)cc21,IC50,[5],< 0.2 µM
same,IC50,[6],< 0.5 µM
same,IC50,[7],< 0.3 µM
O=C(/C=C/c1ccc(O)cc1)n1ccc2cc(O)c(O)cc21,EC50,[14],16.2 µM
same,IC50,Acetylcholinesterase [15],55.1 µM
COc1cc(O)c2c(c1)C(=O)c1cc(O)c(O)cc1CCN2,IC50,Acetylcholinesterase [10],46 µM
CC(=O)O[C@H]1C(=O)[C@@]2(C)[C@H]([C@H](OC(=O)c3ccccc3)[C@]3(O)C[C@H](OC(=O)[C@H](O)[C@@H](NC(=O)c4ccccc4)c4ccccc4)C(C)=C1C3(C)C)[C@]1(OC(C)=O)CO[C@@H]1C[C@@H]2O [PACLITAXEL],IC50,SGC-7901,0.15 µM
COc1cc(/C=C/C(=O)OC[C@H]2O[C@@H](O[C@H]3[C@H](O)[C@@H](OC(=O)/C=C/c4ccc(O)c(O)c4)[C@H](OC[C@H]4O[C@@H](Oc5cc6c(cc5O)C[C@@H](C(=O)O)N6C(=O)/C=C/c5ccc(O)cc5)[C@H](O)[C@@H](O)[C@@H]4O)O[C@@H]3CO)[C@H](O)[C@@H](O)[C@@H]2O)ccc1O,Activity,RAW264.7 [1],34.7%
same,Activity,RAW264.7 [2],81%
O=C(/C=C/c1ccc(O)c(O)c1)n1ccc2cc(O)c(O)cc21,IC50,Acetylcholinesterase [15],44.8 µM
O=C(/C=C/c1ccc(O)c(O)c1)OC[C@H]1O[C@@H](O[C@H]2[C@H](O)[C@@H](OC(=O)/C=C/c3ccc(O)c(O)c3)[C@H](OC[C@H]3O[C@@H](Oc4cc5c(cc4O)C[C@@H](C(=O)O)N5C(=O)/C=C/c4ccc(O)cc4)[C@H](O)[C@@H](O)[C@@H]3O)O[C@@H]2CO)[C@H](O)[C@@H](O)[C@@H]1O,Activity,RAW264.7 [1],38.8%
same,Activity,RAW264.7 [2],74.2%
CC(=O)NCCc1cc(O)c(O)cc1[C@H](NC(C)=O)C(=O)c1ccc(O)c(O)c1,Activity,[16],5%
CO[C@H](CNC(=O)/C=C/c1ccc(O)cc1)c1ccc(O)c(O)c1,EC50,Cholinesterase,46.9 µM
same,Activity,Helicoverpa armigera,61.6%
same,EC50,Acetylcholinesterase [12],23.1 µM
O=c1oc2cc(O)c(O)cc2c2c3c4cc(O)c(O)cc4oc(=O)c3n(CCc3ccc(O)c(O)c3)c12,IC50,[5],3.1 µM
same,IC50,[6],10 µM
same,IC50,[7],3.9 µM
CC1=NCCc2cc(O)c(O)cc21,Activity,[11],15.9%
O=C1c2c(ccc(O)c2O)CCn2cccc21,IC50,Acetylcholinesterase [10],50.5 µM
C/C=C(\C)C(=O)O[C@H]1C[C@@H](OC(C)=O)[C@@]2(C(=O)OC)CO[C@H]3[C@@H](O)[C@@](C)([C@]45O[C@@]4(C)[C@H]4C[C@@H]5O[C@@H]5OC=C[C@@]54O)[C@H]4[C@]1(CO[C@]4(O)C(=O)OC)[C@@H]32 [AZADIRACTIN],EC50,Cholinesterase,68.1 µM
same,EC50,Acetylcholinesterase [12],29.3 µM
COc1cc(/C=C/C(=O)n2ccc3cc(O)c(O)cc32)ccc1O,EC50,[14],13.9 µM
same,IC50,Acetylcholinesterase [15],46.8 µM
O=C1O[C@H]([C@@H](O)CO)C(O)=C1O [ASCORBIC ACID],EC50,[17],4.89 µg/mL
same,EC50,[18],9.72 µg/mL
N[C@@H](CO)C(=O)O [SERINE],IC50,Acetylcholinesterase [10],38.3 µM
NC[C@H](CCCCNC(=O)c1cccc(O)c1O)N1C(=O)c2c(ccc(O)c2O)[C@@H](c2c[nH]c3ccccc23)[C@]1(O)C(=O)O,EC50,[3],30.1 µM
O=c1oc2cc(O)c(O)cc2c2c(-c3ccc(O)c(O)c3)cn(CCc3ccc(O)c(O)c3)c12,IC50,[5],0.8 µM
same,IC50,[6],2.6 µM
same,IC50,[7],1.5 µM
Oc1cc2c(cc1O)CCN=C2,Activity,[11],24.2%
O=C(O)[C@@H]1Cc2cc(O)c(O[C@@H]3O[C@H](CO[C@@H]4O[C@H](CO)[C@@H](O)[C@H](O)[C@H]4O)[C@@H](O)[C@H](O)[C@H]3O)cc2N1C(=O)/C=C/c1ccc(O[C@@H]2O[C@H](CO)[C@@H](O)[C@H](O)[C@H]2O)cc1,IC50,RAW264.7 [19],53.1 µM
O=C1CCc2cc(O)c(O)cc2N1,IC50,MCF7,20.5 µM
O=C(/C=C/c1ccc(O)cc1)n1ccc2cc(O)c(O[C@@H]3O[C@H](CO)[C@@H](O)[C@H](O)[C@H]3O)cc21,IC50,Acetylcholinesterase [15],58.8 µM
